Like-named read-outs stand apart in the source and are kept apart here.
Legend:
asthma patients [1] = conditions: for patients reporting diarrhea: placebo 8%
sE-Selectin = assay: Phase II clinical study CEP-1347-201: sE-Selectin change from baseline; assay type: in vivo, human; conditions: for sE Selection Change from Baseline at Week 8, LS Mean: ANCOVA
Text: Results from an ANCOVA (analysis of covariance) including treatment group as a factor and the baseline value as a covariate are presented in Table 24.

[2] = test system: subjects with Parkinson disease; assay: Rhinitis episodes in subjects with Parkinson disease on CEP-1347; assay type: in vivo, human
Text: In a study examining for association of the MAP3K9 gene and Allergic Rhinitis, deCODE found an association of certain MAP3K9 haplotypes (Table 7A) with Allergic Rhinits, with RR of approximately 1.4 for each allele carried (p<0.05). The risk was highest in a subgroup of subjects with Allergic Rhinitis alone (RR of 1.6 and p=0.005). Additional support that the MAP3K9 gene may play a role in Allergic Rhinits comes from a study conducted on subjects with Parkinson disease. […] Indeed, none of the subjects in the 50 mg dose group (n=198) developed rhinitis whereas 6 subjects in the placebo group (n=191) developed rhinitis (p=0.01).

[3] = biological target: choline acetyltransferase (ChAT); conditions: cited from earlier work
MMP-9 = assay: Phase II clinical study CEP-1347-201: MMP-9 change from baseline; assay type: in vivo, human; conditions: for MMP-9 Change from Baseline at Week 8, LS Mean: ANCOVA
Text: Matrix metalloproteinases (MMPs) are members of a family of proteolytic enzymes that degrade the extracellular matrix and […] tissue inhibitors (TIMPs). Up regulation of MMP-9 results in subepithelial collagen deposition and airway remodeling leading to irreversible airways obstruction in asthma patients. Airway remodeling has and continues to be a research goal of anti-asthma therapies. […] The change in the […] reached statistical significance and the comparison of the pooled CEP-1347 groups versus placebo approached statistical significance (p=0.06).

MLK1 = MLK1 (Homo sapiens, UniProt P80192); conditions: MLK active site; cited from earlier work
IL-6 = assay: Phase II clinical study CEP-1347-201: sputum IL-6; assay type: in vivo, human; conditions: samples not collected in a systematic manner
mice = conditions: cited from earlier work
asthma patients [4] = assay: Phase II clinical study CEP-1347-201: peak expiratory flow rate (PEFR; ANCOVA at week 8 and longitudinal model of daily PEFR); assay type: in vivo, human; conditions: p=0.15; dose-response shape very similar to morning PEFR
IL-1β [5] = conditions: lipopolysaccharide challenge; cited from earlier work
IL-1β [6] = conditions: standard in vitro pharmacological testing procedures (WO 97/49406); cited from earlier work
asthma patients [7] = assay: Phase II clinical study CEP-1347-201: asthma exacerbations and airway remodeling; assay type: in vivo, human
Text: However, given the near normal lung function of the population evaluated in this exploratory Phase 2 trial, positive trends can only be established with respect to the effects of CEP-1347 in asthma due to lack of statistical significance in certain aspects of the study. Furthermore, the trial patient numbers for at-risk haplotype carriers were not large enough to achieve significant power to adequately test the effect on these haplotype positive patients. The asthma patients enrolled into CEP-1347-201 were well treated with near normal lung function and any apparent lack of treatment effect could be attributed, in part, to deficiencies in study design as opposed to a lack of CEP-1347 effect.
The term “airway remodeling” in bronchial asthma refers to structural changes that occur in conjunction with, or because of, chronic airway inflammation. Airway remodeling results in alterations in the airway epithelium, lamina propria, and submucosa, leading to thickening of the airway wall. Another common attribute of asthmatic airways is eosinophilia. Eosinophils expressing the CCR3 chemokine receptor are drawn from pulmonary circulation primarily by Eotaxin/CCL11, which is overexpressed in asthmatic respiratory membrane epithelial cells, fibroblasts, and smooth muscle cells. […]

MLK1, sequence (P80192 whole entry): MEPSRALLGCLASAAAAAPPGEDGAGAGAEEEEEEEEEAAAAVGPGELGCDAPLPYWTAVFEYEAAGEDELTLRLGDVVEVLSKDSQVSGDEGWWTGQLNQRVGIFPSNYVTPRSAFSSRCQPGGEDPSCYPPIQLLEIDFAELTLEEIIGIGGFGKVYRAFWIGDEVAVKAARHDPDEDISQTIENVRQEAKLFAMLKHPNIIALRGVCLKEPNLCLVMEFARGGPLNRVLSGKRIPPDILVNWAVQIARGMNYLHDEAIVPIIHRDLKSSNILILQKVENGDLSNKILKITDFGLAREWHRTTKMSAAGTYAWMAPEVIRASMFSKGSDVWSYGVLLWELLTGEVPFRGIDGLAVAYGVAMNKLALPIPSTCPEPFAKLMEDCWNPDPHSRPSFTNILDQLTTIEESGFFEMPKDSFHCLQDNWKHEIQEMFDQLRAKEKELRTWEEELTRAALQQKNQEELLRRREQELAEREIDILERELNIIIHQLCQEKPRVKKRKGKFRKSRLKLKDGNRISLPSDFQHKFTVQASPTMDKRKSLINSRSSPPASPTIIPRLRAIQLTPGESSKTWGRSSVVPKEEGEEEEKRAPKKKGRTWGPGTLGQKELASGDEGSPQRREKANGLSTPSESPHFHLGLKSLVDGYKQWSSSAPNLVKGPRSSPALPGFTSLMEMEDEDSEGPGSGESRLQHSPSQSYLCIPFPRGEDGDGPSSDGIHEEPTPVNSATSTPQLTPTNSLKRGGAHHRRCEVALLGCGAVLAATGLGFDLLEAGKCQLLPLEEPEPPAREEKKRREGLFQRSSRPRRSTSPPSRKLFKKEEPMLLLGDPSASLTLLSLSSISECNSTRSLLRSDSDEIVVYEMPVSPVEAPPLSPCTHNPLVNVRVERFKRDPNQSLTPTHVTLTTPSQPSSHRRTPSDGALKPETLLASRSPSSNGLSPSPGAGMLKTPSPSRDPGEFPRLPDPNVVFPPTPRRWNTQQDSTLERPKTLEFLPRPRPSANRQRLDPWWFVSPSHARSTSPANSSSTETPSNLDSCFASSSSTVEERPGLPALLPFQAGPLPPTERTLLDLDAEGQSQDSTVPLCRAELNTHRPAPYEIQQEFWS

CCSCc1ccc2c(c1)c1c3c(c4c5cc(CSCC)ccc5n5c4c1n2C1CC(O)(C(=O)OC)C5(C)O1)CNC3=O (centres unmarked) [CEP-1347]
subjects reporting a severe adverse event (asthma patients [1]; 10 mg BID group): 2
subjects reporting a severe adverse event (asthma patients [1]; 25 mg BID group): 1
subjects reporting a severe adverse event (asthma patients [1]; 50 mg BID group): 1
patients reporting diarrhea (asthma patients [1]; CEP-1347 groups, all doses combined): 15%
subjects reporting a severe adverse event, total (asthma patients [1]; all groups): four
patients reporting diarrhea (asthma patients [1]; high dose group (50 mg BID)): 20%
headache incidence (asthma patients [1]; treatment group (all CEP-1347 doses), placebo 5%): 9%
deaths (asthma patients [1]; whole study): no deaths
sE Selection Change from Baseline at Week 8, LS Mean (sE-Selectin; 10 mg BID, p 0.12): −1.49
sE Selection Change from Baseline at Week 8, LS Mean (sE-Selectin; 25 mg BID, p 0.005): −3.18
sE Selection Change from Baseline at Week 8, LS Mean (sE-Selectin; 50 mg BID, p 0.26): −1.00
sE-Selection levels (sE-Selectin; CEP-1347 treated groups compared to placebo, p=0.02): significantly lower
subjects who developed rhinitis ([2]; 50 mg dose group (n=198), 6 subjects in placebo group (n=191), p=0.01): none
AR episodes (rhinitis episodes) ([2]; 50 mg twice daily (bid), N=198, placebo 6 (N=191), p = 0.01): 0
EC50 ([3]; greater potency than K-252a, read-out: potency (EC50) in spinal cord ChAT assays): 0.05 µM
efficacy in spinal cord ChAT assays ([3]; greater than K-252a): 250 % of control
MMP 9 Change from baseline, Mean (MMP-9; 10 mg BID, 4 Weeks): -89.2 pg/mL
MMP 9 Change from baseline, Median (MMP-9; 10 mg BID, 4 Weeks): -79.4 pg/mL
MMP 9 Observed Values, Mean (MMP-9; 10 mg BID, 4 Weeks): 723.4 pg/mL
MMP 9 Observed Values, Median (MMP-9; 10 mg BID, 4 Weeks): 636.5 pg/mL
MMP 9 Change from baseline, Mean (MMP-9; 10 mg BID, 8 Weeks): -108.5 pg/mL
MMP 9 Change from baseline, Median (MMP-9; 10 mg BID, 8 Weeks): -87.6 pg/mL
MMP 9 Observed Values, Mean (MMP-9; 10 mg BID, 8 Weeks): 687.4 pg/mL
MMP 9 Observed Values, Median (MMP-9; 10 mg BID, 8 Weeks): 596.2 pg/mL
MMP-9 Change from Baseline at Week 8, LS Mean (MMP-9; 10 mg BID, p 0.23): −98.4
MMP-9 change from baseline at week 8 (ANCOVA) (MMP-9; 25 mg BID group relative to placebo, p=0.04): statistically significant reduction
MMP 9 Change from baseline, Mean (MMP-9; 25 mg BID, 4 Weeks): -104.2 pg/mL
MMP 9 Change from baseline, Median (MMP-9; 25 mg BID, 4 Weeks): -104.8 pg/mL
MMP 9 Observed Values, Mean (MMP-9; 25 mg BID, 4 Weeks): 660.4 pg/mL
MMP 9 Observed Values, Median (MMP-9; 25 mg BID, 4 Weeks): 623.4 pg/mL
MMP 9 Change from baseline, Mean (MMP-9; 25 mg BID, 8 Weeks): -147.6 pg/mL
MMP 9 Change from baseline, Median (MMP-9; 25 mg BID, 8 Weeks): -85.0 pg/mL
MMP 9 Observed Values, Mean (MMP-9; 25 mg BID, 8 Weeks): 633.5 pg/mL
MMP 9 Observed Values, Median (MMP-9; 25 mg BID, 8 Weeks): 582.1 pg/mL
MMP-9 Change from Baseline at Week 8, LS Mean (MMP-9; 25 mg BID, p 0.04): −144
MMP 9 Change from baseline, Mean (MMP-9; 50 mg BID, 4 Weeks): -82.4 pg/mL
MMP 9 Change from baseline, Median (MMP-9; 50 mg BID, 4 Weeks): -63.6 pg/mL
MMP 9 Observed Values, Mean (MMP-9; 50 mg BID, 4 Weeks): 704.1 pg/mL
MMP 9 Observed Values, Median (MMP-9; 50 mg BID, 4 Weeks): 704.2 pg/mL
MMP 9 Change from baseline, Mean (MMP-9; 50 mg BID, 8 Weeks): -114.0 pg/mL
MMP 9 Change from baseline, Median (MMP-9; 50 mg BID, 8 Weeks): -60.1 pg/mL
MMP 9 Observed Values, Mean (MMP-9; 50 mg BID, 8 Weeks): 682.5 pg/mL
MMP 9 Observed Values, Median (MMP-9; 50 mg BID, 8 Weeks): 655.1 pg/mL
MMP-9 Change from Baseline at Week 8, LS Mean (MMP-9; 50 mg BID, p 0.19): −104
MMP-9 change from baseline at week 8 (ANCOVA) (MMP-9; all CEP-1347 treatment groups relative to placebo, pooled groups vs placebo p=0.06): greater reduction
kinetics of inhibition of MLK kinases, mode of action (MLK1): competitive with the binding of adenosine triphosphate
sputum IL-6 (ANCOVA) (IL-6): no clear treatment related trends or statistically significant changes
protection from LPS-induced death (mice): provides protection
daily evening PEFR, CEP-1347 effect in longitudinal model (asthma patients [4]): borderline significant
production of IL-1β by mice after LPS challenge (IL-1β [5]): reduces production
production of IL-1β by cultured cells (IL-1β [6]): inhibit the production
asthma exacerbations (asthma patients [7]; 50 mg BID group, positive trend only): reduction of exacerbations
progression of airway remodeling (asthma patients [7]; in particular with the 25 mg BID dose (FIG. 13)): Positive effects

— patent US20080146540A1, “Methods of diagnosis and treatment for asthma, allergic rhinitis and other respiratory diseases based on haplotype association” (priority 2003, published 2008)
